Activity calls are given as the source filed them. No rule for the calls is given here.
System: CCRIS mutagenicity, Ames/micronucleus/aberration tests
Experiment: CCRIS mutagenicity studies
[1] = Test System: AMES SALMONELLA TYPHIMURIUM, Strain/Indicator: TA98, Metabolic Activation: HAMSTER, LIVER, S-9, AROCLOR 1254 (10%), Method: PREINCUBATION
[2] = Test System: AMES SALMONELLA TYPHIMURIUM, Strain/Indicator: TA98, Metabolic Activation: NONE, Method: PREINCUBATION
[3] = Test System: AMES SALMONELLA TYPHIMURIUM, Strain/Indicator: TA98, Metabolic Activation: RAT LIVER S-9, PHENOBARBITAL AND BETA-NAPHTHOFLAVONE, Method: PREINCUBATION
[4] = Test System: AMES SALMONELLA TYPHIMURIUM, Strain/Indicator: TA98, Metabolic Activation: RAT, LIVER, S-9, AROCLOR 1254 (10%), Method: PREINCUBATION
[5] = Test System: AMES SALMONELLA TYPHIMURIUM, Strain/Indicator: TA100, Metabolic Activation: HAMSTER, LIVER, S-9, AROCLOR 1254 (10%), Method: PREINCUBATION
[6] = Test System: AMES SALMONELLA TYPHIMURIUM, Strain/Indicator: TA100, Metabolic Activation: NONE, Method: PREINCUBATION
[7] = Test System: AMES SALMONELLA TYPHIMURIUM, Strain/Indicator: TA100, Metabolic Activation: RAT LIVER S-9, PHENOBARBITAL AND BETA-NAPHTHOFLAVONE, Method: PREINCUBATION
[8] = Test System: AMES SALMONELLA TYPHIMURIUM, Strain/Indicator: TA100, Metabolic Activation: RAT, LIVER, S-9, AROCLOR 1254 (10%), Method: PREINCUBATION
[9] = Test System: AMES SALMONELLA TYPHIMURIUM, Strain/Indicator: TA1535, Metabolic Activation: HAMSTER, LIVER, S-9, AROCLOR 1254 (10%), Method: PREINCUBATION
[10] = Test System: AMES SALMONELLA TYPHIMURIUM, Strain/Indicator: TA1535, Metabolic Activation: NONE, Method: PREINCUBATION
[11] = Test System: AMES SALMONELLA TYPHIMURIUM, Strain/Indicator: TA1535, Metabolic Activation: RAT LIVER S-9, PHENOBARBITAL AND BETA-NAPHTHOFLAVONE, Method: PREINCUBATION
[12] = Test System: AMES SALMONELLA TYPHIMURIUM, Strain/Indicator: TA1535, Metabolic Activation: RAT, LIVER, S-9, AROCLOR 1254 (10%), Method: PREINCUBATION
[13] = Test System: AMES SALMONELLA TYPHIMURIUM, Strain/Indicator: TA1537, Metabolic Activation: HAMSTER, LIVER, S-9, AROCLOR 1254 (10%), Method: PREINCUBATION
[14] = Test System: AMES SALMONELLA TYPHIMURIUM, Strain/Indicator: TA1537, Metabolic Activation: NONE, Method: PREINCUBATION
[15] = Test System: AMES SALMONELLA TYPHIMURIUM, Strain/Indicator: TA1537, Metabolic Activation: RAT LIVER S-9, PHENOBARBITAL AND BETA-NAPHTHOFLAVONE, Method: PREINCUBATION
[16] = Test System: AMES SALMONELLA TYPHIMURIUM, Strain/Indicator: TA1537, Metabolic Activation: RAT, LIVER, S-9, AROCLOR 1254 (10%), Method: PREINCUBATION
[17] = Test System: AMES SALMONELLA TYPHIMURIUM, Strain/Indicator: TA100, Metabolic Activation: RAT, LIVER, S-9, PCB, Method: PREINCUBATION
[18] = Test System: AMES SALMONELLA TYPHIMURIUM, Strain/Indicator: TA100, Metabolic Activation: NONE, Method: STANDARD PLATE
[19] = Test System: AMES SALMONELLA TYPHIMURIUM, Strain/Indicator: TA98, Metabolic Activation: NONE, Method: STANDARD PLATE

In the case of NCCO, the mutagenic call [1] is reported as “inactive; negative”, the mutagenic call [2] is reported as “inactive; negative” and the mutagenic call [3] is reported as “inactive; negative”. For the same compound, the mutagenic call [4] was “inactive; negative”, the mutagenic call [5] was “inactive; negative” and the mutagenic call [6] was “inactive; negative”. For the same compound, the mutagenic call [7] was “inactive; negative”, the mutagenic call [8] was “inactive; negative” and the mutagenic call [9] was “inactive; negative”. The mutagenic call [10] was “inactive; negative”, the mutagenic call [11] was “inactive; negative” and the mutagenic call [12] was “inactive; negative”. The mutagenic call [13] was “inactive; negative”, the mutagenic call [14] was “inactive; negative” and the mutagenic call [15] was “inactive; negative”. The mutagenic call [16] was “inactive; negative”, the mutagenic call (Test System: AMES SALMONELLA TYPHIMURIUM, Strain/Indicator: TA1538, Metabolic Activation: NONE, Method: PREINCUBATION) was “inactive; negative” and the mutagenic call (Test System: AMES SALMONELLA TYPHIMURIUM, Strain/Indicator: TA1538, Metabolic Activation: RAT LIVER S-9, PHENOBARBITAL AND BETA-NAPHTHOFLAVONE, Method: PREINCUBATION) was “inactive; negative”. The mutagenic call (Test System: E.COLI, Strain/Indicator: WP2UVRA, Metabolic Activation: NONE, Method: PREINCUBATION) was “active; positive” and the mutagenic call (Test System: E.COLI, Strain/Indicator: WP2UVRA, Metabolic Activation: RAT LIVER S-9, PHENOBARBITAL AND BETA-NAPHTHOFLAVONE, Method: PREINCUBATION) was “inactive; negative”.

For Cc1cccc(NO)c1, the mutagenic call (Test System: AMES SALMONELLA TYPHIMURIUM, Strain/Indicator: TA98, Metabolic Activation: RAT, LIVER, S-9, AROCLOR 1254, Method: PREINCUBATION) was “inactive; negative” and the mutagenic call [17] was “active; positive”.

COc1nncc2cccnc12 was tested, and the mutagenic call [2] was “inactive; negative”, the mutagenic call (Test System: AMES SALMONELLA TYPHIMURIUM, Strain/Indicator: TA98, Metabolic Activation: RAT, LIVER, S-9, PCB, Method: PREINCUBATION) was “inactive; negative” and the mutagenic call [6] was “inactive; negative”. For the same compound, the mutagenic call [17] was “inactive; negative”.

With COc1nsc2ccc([N+](=O)[O-])cc12 the mutagenic call [18] was “active; positive”.

With O=C1C(=O)c2c(ccc3ccccc23)-c2ccccc21 the mutagenic call [19] was “inactive; negative” and the mutagenic call (Test System: AMES SALMONELLA TYPHIMURIUM, Strain/Indicator: TA100, Metabolic Activation: RAT, LIVER, S-9, AROCLOR 1254, Method: STANDARD PLATE) was “inactive; negative”.

For Nc1c(O)cccc1C(=O)O, the mutagenic call [6] was “inactive; negative”.

With COc1cc(-c2cc(=O)c3c(O)cc(O)cc3o2)ccc1O the mutagenic call (Test System: Ames Salmonella typhimurium, Strain/Indicator: TA98, Metabolic Activation: None, Method: Standard plate) was “inactive; negative” and the mutagenic call (Test System: Ames Salmonella typhimurium, Strain/Indicator: TA98, Metabolic Activation: Rat, Liver, S-9, Aroclor 1254, Method: Standard plate) was “inactive; negative”.

In the case of Cc1cccc2c([N+](=O)[O-])cc[n+]([O-])c12, the mutagenic call (Test System: UDS RODENT PRIMARY CELLS, Strain/Indicator: THY INCORP (NON-S-PHASE), Metabolic Activation: NONE, Method: AUTORADIOGRAPHY) is reported as “active; positive”.

For NC=O, the mutagenic call (End Point: In vivo micronucleus, Test System: Peripheral blood erythrocytes, Species: Mouse, Strain/Sex: B6C3F1/ Male and Female, Route: Oral) was “inactive; negative”, the mutagenic call [1] was “inactive; negative” and the mutagenic call [2] was “inactive; negative”. The mutagenic call [3] was “inactive; negative”, the mutagenic call [4] was “inactive; negative” and the mutagenic call [5] was “inactive; negative”. For the same compound, the mutagenic call [6] was “inactive; negative”, the mutagenic call [7] was “inactive; negative” and the mutagenic call [8] was “inactive; negative”. The mutagenic call [9] was “inactive; negative”, the mutagenic call [10] was “inactive; negative” and the mutagenic call [11] was “inactive; negative”. For the same compound, the mutagenic call [12] was “inactive; negative”, the mutagenic call [13] was “inactive; negative” and the mutagenic call [14] was “inactive; negative”. The mutagenic call [15] was “inactive; negative”, the mutagenic call [16] was “inactive; negative” and the mutagenic call (Test System: Ames Salmonella typhimurium, Strain/Indicator: TA98, Metabolic Activation: None, Method: Preincubation) was “inactive; negative”. For the same compound, the mutagenic call (Test System: Ames Salmonella typhimurium, Strain/Indicator: TA98, Metabolic Activation: Rat, Liver, S-9, Aroclor 1254 (10%), Method: Preincubation) was “inactive; negative”, the mutagenic call (Test System: Ames Salmonella typhimurium, Strain/Indicator: TA100, Metabolic Activation: None, Method: Preincubation) was “inactive; negative” and the mutagenic call (Test System: Ames Salmonella typhimurium, Strain/Indicator: TA100, Metabolic Activation: Rat, Liver, S-9, Aroclor 1254 (10%), Method: Preincubation) was “inactive; negative”. For the same compound, the mutagenic call (Test System: E. coli, Strain/Indicator: WP urvA pKM101, Metabolic Activation: None, Method: Preincubation) was “inactive; negative”, the mutagenic call (Test System: E. coli, Strain/Indicator: WP urvA pKM101, Metabolic Activation: Rat, Liver, S-9, Aroclor 1254 (10%), Method: Preincubation) was “inactive; negative” and the mutagenic call (Test System: E.COLI, Strain/Indicator: WP2UVRA/PKM101, Metabolic Activation: NONE, Method: PREINCUBATION) was “inactive; negative”. For the same compound, the mutagenic call (Test System: E.COLI, Strain/Indicator: WP2UVRA/PKM101, Metabolic Activation: RAT LIVER S-9, PHENOBARBITAL AND BETA-NAPHTHOFLAVONE, Method: PREINCUBATION) was “inactive; negative”.

For COc1ccc(-c2nc(-c3ccccc3)c(-c3ccccc3)[nH]2)cc1, the mutagenic call [19] was “active; positive”, the mutagenic call (Test System: AMES SALMONELLA TYPHIMURIUM, Strain/Indicator: TA98, Metabolic Activation: RAT LIVER S-9, 3-METHYLCHOLANTHRENE, SODIUM PHENOBARBITAL, Method: STANDARD PLATE) was “inactive; negative” and the mutagenic call [18] was “active; positive”. For the same compound, the mutagenic call (Test System: AMES SALMONELLA TYPHIMURIUM, Strain/Indicator: TA100, Metabolic Activation: RAT LIVER S-9, 3-METHYLCHOLANTHRENE, SODIUM PHENOBARBITAL, Method: STANDARD PLATE) was “inactive; negative”.

Source: PubChem BioAssay AID1259407 (Chemical Carcinogenesis Research Information System (CCRIS), 2018)
